Data set [1] addresses T1, Carnitine O-palmitoyltransferase 2, mitochondrial (Homo sapiens, UniProt P23786).
T1 sequence (P23786 whole entry): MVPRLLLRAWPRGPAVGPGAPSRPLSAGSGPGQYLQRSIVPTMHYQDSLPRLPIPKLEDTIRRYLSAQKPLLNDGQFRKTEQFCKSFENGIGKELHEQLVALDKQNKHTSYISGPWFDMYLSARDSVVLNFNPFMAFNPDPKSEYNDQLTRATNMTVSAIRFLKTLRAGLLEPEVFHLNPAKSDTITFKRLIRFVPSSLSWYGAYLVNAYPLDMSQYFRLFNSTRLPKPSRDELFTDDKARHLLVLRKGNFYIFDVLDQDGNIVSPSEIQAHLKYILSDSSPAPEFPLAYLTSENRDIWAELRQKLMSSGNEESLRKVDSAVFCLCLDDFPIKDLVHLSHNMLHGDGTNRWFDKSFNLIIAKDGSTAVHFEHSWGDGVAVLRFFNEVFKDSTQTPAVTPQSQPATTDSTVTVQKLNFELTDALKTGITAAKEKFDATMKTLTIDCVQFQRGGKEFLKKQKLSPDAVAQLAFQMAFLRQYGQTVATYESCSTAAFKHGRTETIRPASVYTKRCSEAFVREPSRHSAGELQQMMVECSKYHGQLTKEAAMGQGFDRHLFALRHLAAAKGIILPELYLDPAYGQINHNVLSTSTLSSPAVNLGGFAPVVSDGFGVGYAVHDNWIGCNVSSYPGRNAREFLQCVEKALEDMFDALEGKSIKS
Put plainly: (§1) SUPPLEMENTARY: Inhibition of Carnitine palmitoyltransferase 2.

Data set [2] has as its target T2, Carnitine O-palmitoyltransferase 2, mitochondrial (Rattus norvegicus, UniProt P18886).
T2 sequence (P18886 whole entry): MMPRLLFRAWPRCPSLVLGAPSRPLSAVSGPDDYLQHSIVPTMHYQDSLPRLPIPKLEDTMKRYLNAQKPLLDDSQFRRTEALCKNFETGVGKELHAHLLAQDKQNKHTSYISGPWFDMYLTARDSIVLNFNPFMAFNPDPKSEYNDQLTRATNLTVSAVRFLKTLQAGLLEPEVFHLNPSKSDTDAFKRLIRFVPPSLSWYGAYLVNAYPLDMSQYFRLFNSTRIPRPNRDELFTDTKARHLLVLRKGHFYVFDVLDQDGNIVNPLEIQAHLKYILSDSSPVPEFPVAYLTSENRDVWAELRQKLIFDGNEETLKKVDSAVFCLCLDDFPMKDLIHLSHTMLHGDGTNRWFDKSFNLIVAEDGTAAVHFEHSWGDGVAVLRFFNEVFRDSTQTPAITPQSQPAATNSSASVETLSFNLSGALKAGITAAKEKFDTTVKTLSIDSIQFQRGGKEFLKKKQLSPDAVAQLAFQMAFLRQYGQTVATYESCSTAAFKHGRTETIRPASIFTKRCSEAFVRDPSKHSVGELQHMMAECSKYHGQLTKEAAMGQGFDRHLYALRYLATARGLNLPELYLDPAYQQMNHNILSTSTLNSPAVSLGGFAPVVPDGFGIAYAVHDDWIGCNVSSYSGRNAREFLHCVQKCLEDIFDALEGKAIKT
The description is as §1.

Data set [3] is described as follows: SUPPLEMENTARY: PAMPA permeability assay. Particulars: read-out: Permeability. It is filed as physicochemical.
Data set [4] can be described thus: SUPPLEMENTARY: Lyophilisation Solubility Assay (LYSA). In kind it is physicochemical. Conditions: read-out: Kinetic_solubility.
Data set [5] deals with T3, Carnitine O-palmitoyltransferase 1, liver isoform (Homo sapiens, UniProt P50416).
T3 sequence (P50416 whole entry): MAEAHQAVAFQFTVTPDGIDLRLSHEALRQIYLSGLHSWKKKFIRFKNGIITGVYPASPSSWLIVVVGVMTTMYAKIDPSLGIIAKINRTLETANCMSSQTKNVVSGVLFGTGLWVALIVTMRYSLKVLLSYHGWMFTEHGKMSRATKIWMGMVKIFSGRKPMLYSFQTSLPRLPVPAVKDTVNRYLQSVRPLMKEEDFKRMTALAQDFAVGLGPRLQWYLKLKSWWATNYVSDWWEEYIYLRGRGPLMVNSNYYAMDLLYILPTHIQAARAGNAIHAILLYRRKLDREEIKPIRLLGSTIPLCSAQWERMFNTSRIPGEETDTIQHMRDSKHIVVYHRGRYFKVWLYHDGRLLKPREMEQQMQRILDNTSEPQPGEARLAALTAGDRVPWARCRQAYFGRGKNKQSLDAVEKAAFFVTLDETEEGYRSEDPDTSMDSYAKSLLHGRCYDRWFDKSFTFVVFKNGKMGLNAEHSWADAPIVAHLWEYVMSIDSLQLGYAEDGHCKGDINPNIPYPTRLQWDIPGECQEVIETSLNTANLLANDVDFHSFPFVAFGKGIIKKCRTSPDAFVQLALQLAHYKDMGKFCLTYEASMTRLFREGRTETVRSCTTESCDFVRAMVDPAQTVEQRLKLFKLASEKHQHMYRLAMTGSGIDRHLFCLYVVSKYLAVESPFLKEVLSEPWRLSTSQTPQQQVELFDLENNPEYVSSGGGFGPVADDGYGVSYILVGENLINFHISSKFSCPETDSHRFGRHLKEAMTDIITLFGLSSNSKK
As to the kind of experiment: (§2) SUPPLEMENTARY: Inhibition of Carnitine palmitoyltransferase 1, liver isoform.

The target of data set [6] is T4, Carnitine O-palmitoyltransferase 1, liver isoform (Rattus norvegicus, UniProt P32198).
T4 sequence (P32198 whole entry): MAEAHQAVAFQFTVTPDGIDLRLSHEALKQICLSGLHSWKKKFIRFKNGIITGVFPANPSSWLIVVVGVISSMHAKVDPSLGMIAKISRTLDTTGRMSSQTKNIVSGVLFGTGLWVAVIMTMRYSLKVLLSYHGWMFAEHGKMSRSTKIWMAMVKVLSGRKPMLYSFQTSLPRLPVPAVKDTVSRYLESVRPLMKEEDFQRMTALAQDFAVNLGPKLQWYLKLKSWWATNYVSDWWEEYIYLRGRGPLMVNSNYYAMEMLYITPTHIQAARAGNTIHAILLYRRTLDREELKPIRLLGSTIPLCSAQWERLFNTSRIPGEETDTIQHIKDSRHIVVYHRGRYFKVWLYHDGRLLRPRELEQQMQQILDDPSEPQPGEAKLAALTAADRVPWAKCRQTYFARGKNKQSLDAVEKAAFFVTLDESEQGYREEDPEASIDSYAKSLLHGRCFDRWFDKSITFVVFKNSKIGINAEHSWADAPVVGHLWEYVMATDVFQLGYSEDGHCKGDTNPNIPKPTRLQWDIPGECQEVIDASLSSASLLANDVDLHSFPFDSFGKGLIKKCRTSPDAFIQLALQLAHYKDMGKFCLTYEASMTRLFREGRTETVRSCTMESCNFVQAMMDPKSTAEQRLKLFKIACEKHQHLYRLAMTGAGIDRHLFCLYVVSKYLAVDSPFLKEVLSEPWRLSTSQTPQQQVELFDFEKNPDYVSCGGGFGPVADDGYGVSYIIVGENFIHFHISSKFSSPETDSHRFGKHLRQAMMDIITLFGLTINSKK
The description is as §2.

Data set [7] concerns the target T5, Carnitine O-palmitoyltransferase 1, muscle isoform (Homo sapiens, UniProt Q92523).
T5 sequence (Q92523 whole entry): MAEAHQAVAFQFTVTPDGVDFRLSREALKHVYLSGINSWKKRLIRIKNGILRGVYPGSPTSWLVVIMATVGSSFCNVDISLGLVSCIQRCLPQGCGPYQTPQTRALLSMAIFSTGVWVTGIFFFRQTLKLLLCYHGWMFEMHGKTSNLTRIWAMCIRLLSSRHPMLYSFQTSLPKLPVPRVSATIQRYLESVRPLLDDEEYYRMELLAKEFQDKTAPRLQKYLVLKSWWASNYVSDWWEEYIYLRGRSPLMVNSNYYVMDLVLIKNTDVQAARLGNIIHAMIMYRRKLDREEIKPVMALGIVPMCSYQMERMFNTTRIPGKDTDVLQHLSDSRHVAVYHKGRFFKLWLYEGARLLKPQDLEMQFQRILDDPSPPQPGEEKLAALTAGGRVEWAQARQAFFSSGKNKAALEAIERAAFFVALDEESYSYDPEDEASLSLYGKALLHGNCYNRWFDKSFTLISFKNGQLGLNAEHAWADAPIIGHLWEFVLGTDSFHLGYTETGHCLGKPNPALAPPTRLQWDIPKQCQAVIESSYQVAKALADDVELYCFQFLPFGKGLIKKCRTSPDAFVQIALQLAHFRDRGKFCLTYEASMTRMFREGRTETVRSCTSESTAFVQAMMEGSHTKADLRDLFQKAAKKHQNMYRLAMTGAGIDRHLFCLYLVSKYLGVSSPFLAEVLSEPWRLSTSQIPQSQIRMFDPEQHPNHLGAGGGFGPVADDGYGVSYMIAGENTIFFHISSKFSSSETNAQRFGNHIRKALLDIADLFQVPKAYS
As to the kind of experiment: SUPPLEMENTARY: Inhibition of Carnitine palmitoyltransferase 1, muscle isoform. Further details: species or system Muscle tissue.

A short description of data set [8]: SUPPLEMENTARY: Lipophilicity (log D) Determination by high-throughput shake-flask. It is filed as physicochemical. Particulars: octanol/water.

We go through ten molecules from ChEMBL document CHEMBL3431459, “Roche carnitine palmitoyltransferase modulator screening data (supplementary data associated with the publication CHEMBL2216752)”.

The term pIC50 denotes the negative decadic logarithm of the IC50, by convention in mol/L. Read a low pIC50 as a high IC50. As a reminder, the logD is the decadic logarithm of the distribution of all forms, ionised or not, between an organic phase and buffer at a given pH.

pIC50: −log10 of the molar value. Values after ≈ are worked out from the molar mass of the structure shown.

For the molecule `CC(=O)Nc1ccc(F)c(-c2n[nH]c([C@H]3CCCCN3C(=O)COc3ccccc3)n2)c1`, the pIC50 was under 4.00 in data set [1]; under 4.00 in data set [2]; 6.48 in data set [5]; 6.51 in data set [6]; under 4.00 in data set [7]. Further, the Papp in data set [3] amounted to 4.32 ×10⁻⁶ cm/s. In addition, the solubility kinetic in data set [4] is 181 µg/mL (≈ 414 µM). This molecule gave a logD in data set [8] of 2.5.

As for `N#Cc1ccc(-c2nc([C@H]3CCCCN3C(=O)COc3ccccc3)no2)cn1`, the pIC50 in data set [1] is 5.14; in data set [2] it was 4.10; in data set [5], 6.78; in data set [6], 6.61; in data set [7], under 4.00. For the same molecule, the Papp in data set [3] came to 8.44 ×10⁻⁶ cm/s. Besides, the solubility kinetic in data set [4] is 33 µg/mL (≈ 84.7 µM). Further, the logD in data set [8] was determined as 2.54.

Regarding `O=C(COc1ccccc1)N1CCCC[C@@H]1c1noc(-c2cccc3[nH][nH]c(=O)c23)n1`, the pIC50 is 5.20 in data set [1]; 5.12 in data set [2]; 7.00 in data set [5]; 7.03 in data set [6]; 5.12 in data set [7]. Moreover, in data set [3], the Papp was 6.44 ×10⁻⁶ cm/s. Moreover, the solubility kinetic in data set [4] was found to be 46 µg/mL (≈ 110 µM). The logD in data set [8] came to 2.53.

`Nc1cc(-c2nc([C@H]3CCCCN3C(=O)COc3ccccc3)no2)ccn1`: the pIC50 in data set [1] is 4.37; in data set [2], under 4.00; in data set [5], 6.96; in data set [6] it was 6.43; in data set [7] it was under 4.00. Also, in data set [3], the Papp was 4.86 ×10⁻⁶ cm/s. Besides, in data set [4], the solubility kinetic is 61 µg/mL (≈ 161 µM). For the same molecule, in data set [8], the logD is 2.47.

Regarding `COc1ccc(Cl)cc1CN1C(=O)OC(C)(C)c2ccc(C(=O)Nc3ccc(CC(=O)O)cc3)cc21`, the pIC50 in data set [1] was under 4.00; in data set [2] it was under 4.00; in data set [5] it was 6.83; in data set [6] it was 7.38; in data set [7] it was 5.63. In data set [3], the Papp was determined as 1.71 ×10⁻⁶ cm/s. For the same molecule, the solubility kinetic in data set [4] was found to be 26 µg/mL (≈ 51.1 µM). For the same molecule, the logD in data set [8] is 0.51.

Regarding `CC(=O)Nc1cc(F)cc(-c2n[nH]c([C@H]3CCCCN3C(=O)COc3ccccc3)n2)c1`, the pIC50 in data set [1] was under 4.00; in data set [2], under 4.00; in data set [5] it was 7.58; in data set [6], 7.18; in data set [7], under 4.00. In addition, the Papp in data set [3] is 1.69 ×10⁻⁶ cm/s. Further, the solubility kinetic in data set [4] turned out to be 37 µg/mL (≈ 84.6 µM). For the same molecule, the pH-dependent lipophilicity (logD) in data set [8] came to 3.22.

Take `CC(=O)Nc1cc(-c2n[nH]c([C@H]3CCCCN3C(=O)COc3ccccc3)n2)ccc1F`: the pIC50 in data set [1] is 4.34; in data set [2] it was under 4.00; in data set [5], 7.10; in data set [6] it was 6.43; in data set [7], under 4.00. Besides, the Papp in data set [3] was determined as 2.67 ×10⁻⁶ cm/s. The solubility kinetic in data set [4] stood at 121 µg/mL (≈ 277 µM). Moreover, the logD in data set [8] is 2.43.

On to `CC(=O)Nc1cc(F)cc(-c2noc([C@H]3CCCCN3C(=O)COc3ccccc3)n2)c1`, for which the pIC50 in data set [1] is under 4.00; in data set [2] it was under 4.00; in data set [5] it was 6.91; in data set [6], 6.88; in data set [7], under 4.00. Further, the Papp in data set [3] worked out at 1.35 ×10⁻⁶ cm/s. Moreover, in data set [4], the solubility kinetic is under 1 µg/mL. The logD in data set [8] came to 3.62.

For the molecule `CC(=O)Nc1cc(-c2noc([C@H]3CCCCN3C(=O)COc3ccccc3)n2)ccc1F`, the pIC50 in data set [1] is under 4.00; in data set [2], under 4.00; in data set [5], 7.55; in data set [6], 6.84; in data set [7], under 4.00. Besides, in data set [3], the Papp is 2.17 ×10⁻⁶ cm/s. Besides, the solubility kinetic in data set [4] amounted to 18 µg/mL (≈ 41.1 µM). Also, the logD in data set [8] stood at 3.

As for `Cc1cccc(S(=O)(=O)N2CCOc3ccc(C(=O)Nc4nc(CC(=O)O)cs4)cc32)c1`, the pIC50 in data set [1] was under 4.00; in data set [2] it was under 4.00; in data set [5], 7.25; in data set [6], 7.26; in data set [7], 5.97. The Papp in data set [3] was 3.08 ×10⁻⁶ cm/s. Further, the solubility kinetic in data set [4] is over 631 µg/mL. Also, the logD in data set [8] was 0.14.
